The text below walks through data of patent publication US12653887B2, “T cell manufacturing compositions and methods” (priority 2019, dated 2026).

One assay deals with T1, HLA-A02:01 (Homo sapiens, UniProt P04439, D140Y/D185E/D98H/E176V/E277Q/G131W/G231S/I119V/I121R/I166T/I218V/L300P/L318F/N151K/N90K/P208A/P217A/Q86G/Q94H/R138H/R169H/T345S).
T1 construct: endogenous in cells; host or cells: CD25 depleted PBMCs (donor cells)
As to the kind of experiment: Epitope presentation after RNA electroporation of CD25 depleted PBMC, HLA immunoprecipitation and LC-MS/MS. The class given is cell-based. Conditions: over 24 hours. Here is the method: CD25 depleted PBMC cells were electroporated with RNA (depicted in FIG. 60C) and cultured over a period of 24 hours. Cells were harvested at the indicated times, pelleted and flash frozen. HLA-A02:01-peptide complexes were immunoprecipitated and then peptides were eluted and analyzed by LC-MS/MS. Peptide eluted from electroporated cells (Light) were compared to heavy labelled standard peptides (Heavy) for positive identification. (FIG. 63A).

In a further assay the test system is CD8+ T cells. The assay can be described thus: RNA nucleofection of differently prepared PBMCs, multimer assay. The assay is classed as cell-based, human. To be noted: for Hit Rate (%) / Mean Frequency: immunogen RNA (25 mer epitopes). Here is the method:
In this experiment, PBMCs were variously treated for depletion of certain populations and their expansion and multimer specificity was investigated. Yield of multimer specific T cells was tested by nucleofecting three sets of PBMC preparations with RNA constructs: (i) CD25 depleted PBMCs, (ii) CD14 and CD25 depleted PBMCs, (iii) Frozen CD14 and CD25 depleted PBMCs. In preparation (i), T cells were not separated from the APCs during nucleofection like in preparation (ii) and (iii). These were compared with a set of PBMCs loaded with peptides. All cells were treated with FLT3L prior to electroporation. […] It could be possible that less handling of PBMCs before RNA loading step was advantageous. Depletion of multiple cell components in the PBMC population required subjecting the cell population to multiple antibodies, washing steps and recovery steps, which amounts to handling stress for the cells.
CD25 depleted PBMCs had detectable Gli3 specific CD8+ T cells, and ME1 specific CD8+ T cells. ME1 specific CD8+ T cells were negligible in all the other sets.

A further assay concerns CD8+ naïve T cells. The assay can be described thus: CD8+ naïve T cell induction (protocol 1 / protocol 2), pMHC multimer flow cytometry. The assay is classed as cell-based, human. To be noted: for fraction of antigen specific CD8+ T cells (multimer): HD35. Here is the method: • DC media (Cellgenix) • CD14 microbeads, human, Miltenyi #130-050-201 • Cytokines and/or growth factors • T cell media (AIM V+RPMI 1640 glutamax+serum+PenStrep) • Peptide stocks—1 mM per peptide (HIV A02—5-10 peptides, HIV B07—5-10 peptides, DOM—4-8 peptides, PIN—6-12 peptides) Procedure: Step 1: Monocyte Isolation for DC Prep • 1. Calculate the approximate number of PBMCs to thaw based on expected DC yield for each donor. • 2. Thaw PBMCs and resuspend at ˜1×10^6-1×10^8 cells/mL in DC media. • 3. Add benzonase (1:1000 dilution) and place in incubator with cap loosened. • 4. Perform CD14^+ monocyte enrichment according to manufacturer protocol. • 5. Plate enriched cells in 6-well plates at 1×10^5-1×10^7 per well in DC media with one or more cytokines and/or growth factors selected from GM-CSF, IL-4, FLT3L, TNF-α, IL-1β, PGE1, IL-6, IL-7, IFN-α, R848, LPS, ss-rna40, and polyI:C. Step 2: Peptide Loading and Maturation • 1. Count DCs and split the cells according to the experimental conditions in 15 mL tubes; 0.01-1 million cells per condition. • 2. Spin @1200 rpm for 5 min and resuspend in 50-400 μL DC medium. Add peptide(s) and place in incubator with loosened cap for 0.5-3 hrs. Volumes were calculated for peptide pools at a concentration of 1 mM per peptide. A volume of each separate pool of A02 (5 peptides) and B07 (5 peptides) was added per well for a final concentration of 0.001-100 μM per peptide. • 3. After 0.5-3 hrs. add 200 μL to 1.5 mL of DC media containing maturation mix and transfer the cells to 24 well plate. The maturation mix contains one or more cytokines selected from GM-CSF, IL-4, FLT3L, TNF-α, IL-1β, PGE1, IL-6, IL-7, IFN-α, R848, LPS, ss-rna40, and polyI:C. Step 3: Setting Up Long Term Stimulation (LTS) Experiment • 1. Carefully remove all media from the wells of the DC plates, transferring each well to a separate well in a 24-well deepwell block. • 2. Wash each well with 0.5-3 mL T cell media and combine with DC media in the deepwell block. • 3. Add 100 μL to 2 mL T cell media to each well. • 4. Spin down DCs at 1200 rpm for 5 min. • 5. Remove all supernatant, resuspend DCs in 100 μL to 2 mL T cell media and transfer back into the correct wells. • 6. Thaw PBMCs in T cell media and resuspend at 0.5×10^6-4×10^6 cells/mL in T cell media with IL-7 and IL-15. • 7. Add 0.5-3 mL of prepared PBMCs to each well. Step 4: Feeding LTS
• AIM V media (Invitrogen) • Media 1 (RPMI 1640 glutamax+serum+PenStrep) • Media 2 (AIM V+RPMI 1640 glutamax+serum+PenStrep) Procedure: • Step 1: Plate 4 million PBMCs in each well of 24 well plate with one or more cytokines in Media 2. The one or more cytokines are selected from GM-CSF, IL-4, FLT3L, TNF-α, IL-1β, PGE1, IL-6, IL-7, IFN-α, R848, LPS, ss-rna40, and polyI:C. • Step 2: Peptide loading and maturation in Media 2 • 1. Make stock peptide pool of interest (except for no peptide condition) at 0.001-100 μM for shortmers and 0.001-100 μM for longmers final concentration in respective wells and mix. • 2. Incubate for 0.5-3 hr. • 3. Make stock maturation cocktail and add to each well after incubation and mix. […]

[1] abbreviates: Donor 1, starting material CD14-CD25- (Base Arm).
Where [2] appears, read: Donor 1, starting material CD14-CD25- (Frozen).
The mark [3] stands for this setting: Donor 1, starting material PBMC (CD25−), IL-7 and IL-15.
Setting [4] is: Donor 2, starting material CD14-CD25- (Base Arm).
[5] abbreviates: Donor 2, starting material CD14-CD25- (Frozen).
[6] abbreviates: Donor 2, starting material PBMC (CD25−), IL-7 and IL-15.
Where [7] appears, read: Donor 2, starting material PBMC (CD25−).

As to “CDK4: CDK4 epitope encoded in the RNA (25 mer epitopes) construct (ACDPHSGHFV)”, the “presentation of the epitope by HLA-A02:01 after RNA electroporation” value (“presentation of the epitope” below) with HLA-A02:01 is reported as “expressed readily as dominant epitopes”. Also, the “Hit Rate (%)” value with CD8+ T cells (setting [1]), with CD8+ T cells (setting [2]), in the assay on CD8+ T cells (setting [3]), in the assay with CD8+ T cells (setting [4]), in the assay with CD8+ T cells (setting [5]) and in the assay with CD8+ T cells (setting [6]) was 0% each time.

In the case of “Gli3: Gli3 epitope encoded in the RNA (25 mer epitopes) construct (RLIPGIPTV)”, the “presentation of the epitope” value with HLA-A02:01 was “expressed readily as dominant epitopes”. Also, the “Hit Rate (%)” value with CD8+ T cells (setting [1]) was determined as 100%; in the assay with CD8+ T cells (setting [2]), 100%; in the assay on CD8+ T cells (setting [3]), 83%; with CD8+ T cells (setting [4]), 100%; with CD8+ T cells (setting [5]) it was 67%; with CD8+ T cells (setting [6]), 83%. Also, the “Mean Frequency” value is given as 0.98% in the assay with CD8+ T cells (setting [1]); 0.52% with CD8+ T cells (setting [2]); 6.09% in the assay on CD8+ T cells (Donor 1, starting material PBMC (CD25−)); 0.79% in the assay with CD8+ T cells (setting [4]); 0.12% in the assay with CD8+ T cells (setting [5]); 2.68% with CD8+ T cells (setting [7]). Further, the “increase in multimer positive cells, RNA transfected versus peptide loaded PBMCs” value in the assay on CD8+ T cells (FIG. 61B) is “greater than 10 fold”.

“ME-1: previously identified neoantigen (PIN) short peptide; also encoded in RNA (FLDEFMEGV)”: in the assay with HLA-A02:01, the “presentation of the epitope” value is given as “expressed readily as dominant epitopes”. The “fraction of antigen specific CD8+ T cells (multimer)” value in the assay with CD8+ naïve T cells (Prot. 2 (bulk), day 19, confirmation) is 0.927%; with CD8+ naïve T cells (Prot. 2 (bulk), day 19, initial) it was 4.15%; in the assay with CD8+ naïve T cells (Prot. 2 (bulk), day 26, confirmation), 2.34%; with CD8+ naïve T cells (Prot. 2 (bulk), day 26, initial), 12.6%. Moreover, the “CD8+ T cells specific to the peptide” value with CD8+ naïve T cells (protocol 2, after a long induction) worked out at 12.6%. The “Hit Rate (%)” value turned out to be 0% in the assay with CD8+ T cells (setting [1]); 0% with CD8+ T cells (setting [2]); 0% with CD8+ T cells (setting [3]); 83% in the assay with CD8+ T cells (setting [4]); 0% in the assay with CD8+ T cells (setting [5]); 67% in the assay on CD8+ T cells (setting [6]). For the same substance, the results for the “Mean Frequency” value in the assay on CD8+ T cells (setting [4]), in the assay on CD8+ T cells (setting [5]) and with CD8+ T cells (setting [7]) were 0.01%, 0.01% and 2.97%, respectively.

On to “ACTN4: previously identified neoantigen (PIN) short peptide; also encoded in RNA (FIASNGVKLV)”, for which the “presentation of the epitope” value with HLA-A02:01 is reported as “expressed readily as dominant epitopes”. In addition, the “fraction of antigen specific CD8+ T cells (multimer)” value came to 0.095% in the assay with CD8+ naïve T cells (Prot. 2 (CD25 depleted), day 26, confirmation) and 0.376% in the assay on CD8+ naïve T cells (Prot. 2 (CD25 depleted), day 26, initial). For the same substance, the “Hit Rate (%)” value in the assay on CD8+ T cells (setting [1]), with CD8+ T cells (setting [2]), with CD8+ T cells (setting [3]), in the assay with CD8+ T cells (setting [4]), with CD8+ T cells (setting [5]) and in the assay with CD8+ T cells (setting [6]) was 0% throughout.
